Measured values taken from the supplement of paper PMC9151546.
Structures can show the parent of a compound that is named as a salt. ± gives the standard deviation of the averaged measurements.

These compounds were tested on CHO-K1 (assay: benchmark concentration for 60% increase in hypodiploid frequency (BMC60); higher = less potent aneugen). Details: S9 metabolic activation: with S9.
Method: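 Benchmark concentration modelling (PROAST, Hill/exponential model families) of the 19-concentration flow-cytometric micronucleus assay in CHO-K1 cells, with and without rat liver S9. Only non-cytotoxic and adequate (relative survival >=40%) concentrations were used. BMR was a 30% increase in %MN (BMC30) or a 60% increase in %hypodiploid (BMC60) over control.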

First: COC(=O)Nc1nc2ccccc2[nH]1 [Carbendazim]
Second: Nc1cc(Cl)cc(C(=O)O)c1Cl [Chloramben]
The benchmark concentration of the first is 3.3-fold higher: 32 µM for the first, 9.7 µM for the second.

With CN(C)[C@@H]1C(=O)C(C(N)=O)=C(O)[C@@]2(O)C(=O)C3=C(O)c4c(O)cccc4[C@@](C)(O)[C@H]3[C@H](O)[C@@H]12 [Oxytetracycline hydrochloride] the benchmark concentration was 110 µM.

Same assay, conditions: S9 metabolic activation: without S9

Compared with CCCCCCc1ccc(O)cc1O [4-Hexylresorcinol], CCCCCCCCCC(=O)O [Decanoic acid] is higher in benchmark concentration: < 4.5 µM for the first, 30 µM for the second.

Going from Cc1c(C)c2c(c(C)c1O)CCC(C)(COc1ccc(CC3SC(=O)NC3=O)cc1)O2 (stereo not drawn) [Troglitazone] to CCOC(=O)C(C)(C)Oc1ccc(Cl)cc1 [Clofibrate], the benchmark concentration rises from 14 µM to 130 µM (9.3-fold).

Going from Clc1ccc(Cl)c(Cl)c1 [1,2,4-Trichlorobenzene] to Clc1cccc(Cl)c1Cl [1,2,3-Trichlorobenzene], the benchmark concentration falls from 100 µM to 32 µM (3.1-fold).

First: Oc1ccc(Cl)cc1Cc1ccccc1 [Clorophene]
Second: Oc1ccccc1Cl [2-Chlorophenol]
The benchmark concentration of the first is 2.9-fold lower: 34 µM for the first, 97 µM for the second.

O=C=NCCCCCCN=C=O [1,6-Diisocyanatohexane] and CCCCCCCCCCO [1-Decanol] are within 1.5-fold of each other in benchmark concentration: 100 µM for the first, 120 µM for the second.

First: CCc1cccc(C)c1N(C(=O)CCl)C(C)COC (stereo not drawn) [Metolachlor]
Second: CC(C)COC(=O)c1ccccc1C(=O)OCC(C)C [Diisobutyl phthalate]
The benchmark concentration of the first is 5.6-fold higher: 180 µM for the first, 32 µM for the second.

C/C=C\c1ccc(O)c(OC)c1 [Isoeugenol] and COc1cc(C=O)ccc1O [4-Hydroxy-3-methoxybenzaldehyde] are within 1.5-fold of each other in benchmark concentration: 72 µM for the first, 53 µM for the second.

Going from Cc1cn(C2CC(N=[N+]=[N-])C(CO)O2)c(=O)[nH]c1=O (stereo not drawn) [3-Azido-3-deoxythymidine] to Cc1c(C(=O)O)c(O)cc2c1C(=O)c1c(O)c([C@@H]3O[C@H](CO)[C@@H](O)[C@H](O)[C@H]3O)c(O)c(O)c1C2=O [Carminic acid], the benchmark concentration falls from 72 µM to 13 µM (5.5-fold).

First: NC(=O)N1c2ccccc2C=Cc2ccccc21 [Carbamazepine]
Second: c1ccc2cc3ccccc3cc2c1 [Anthracene]
The benchmark concentration of the first is 2.2-fold higher: 110 µM for the first, 51 µM for the second.

CSC(C)(C)/C=N/O [Aldicarb oxime] and CN(C)C(=S)S [Sodium dimethyldithiocarbamate] are within 1.5-fold of each other in benchmark concentration: 40 µM for the first, 49 µM for the second.

OC(Cn1cncn1)(Cn1cncn1)c1ccc(F)cc1F [Fluconazole] and CCN(CC)C(=O)SCc1ccc(Cl)cc1 [Thiobencarb] are within error of each other in benchmark concentration: 90 µM for the first, 113 ± 110 µM for the second.

Going from COC(=O)Nc1nc2ccccc2[nH]1 [Carbendazim] to c1ccc2[nH]c(-c3cscn3)nc2c1 [Thiabendazole], the benchmark concentration rises from < 4.5 µM to 14.1 ± 7 µM.

Compared with O=[N+]([O-])c1ccc(Cl)cc1 [1-Chloro-4-nitrobenzene], Cc1ccc(Cl)cc1 [4-Chlorotoluene] is 2-fold lower in benchmark concentration: 120 µM for the first, 60 µM for the second.

First: ClC1=C(Cl)C2(Cl)C3C(Cl)C(Cl)CC3C1(Cl)C2(Cl)Cl (stereo not drawn) [Chlordane]
Second: ClC1=C(Cl)C2(Cl)C3C4CC(C5OC45)C3C1(Cl)C2(Cl)Cl (stereo not drawn) [Endrin]
The benchmark concentration of the first is higher: 54 µM for the first, < 4.5 µM for the second.

Nc1cc(Cl)cc(C(=O)O)c1Cl [Chloramben] and Nc1ccc(C(=O)O)cc1 [4-Aminobenzoic acid] are the same in benchmark concentration: 110 µM for the first, 110 µM for the second.

Going from Cc1ccc(N)cc1O [5-Amino-2-methylphenol] to Cc1cccc(C)c1N [2,6-Dimethylaniline], the benchmark concentration rises from 5.3 µM to 87 µM (16-fold).

Compared with CCCCC(CC)CO (stereo not drawn) [2-Ethyl-1-hexanol], OCCNCCO [Diethanolamine] is 1.5-fold higher in benchmark concentration: 56 µM for the first, 84 µM for the second.

Compared with CC(C)(C)OOC(C)(C)CCC(C)(C)OOC(C)(C)C [2,5-Dimethyl-2,5-di-(tert-butylperoxy)hexane], CC(=O)OCCC(C)C [3-Methylbutyl acetate] is 4.6-fold lower in benchmark concentration: 60 µM for the first, 13 µM for the second.

Compared with C/C=C/c1ccc(OC)cc1 [(E)-Anethole], COc1ccc([N+](=O)[O-])cc1N [2-Methoxy-5-nitroaniline] is 2.6-fold higher in benchmark concentration: 35 µM for the first, 90 µM for the second.

COCCOCCO [Diethylene glycol monomethyl ether] and COC(=O)c1ccccc1C(=O)OC [Dimethyl phthalate] are within 1.5-fold of each other in benchmark concentration: 90 µM for the first, 120 µM for the second.

CC(=O)c1ccccc1 [Acetophenone] and CN(C)c1ccccc1 [N,N-Dimethylaniline] are within 1.5-fold of each other in benchmark concentration: 50 µM for the first, 43 µM for the second.

O=NO [Sodium nitrite] and Cc1occc(=O)c1O [Maltol] are within 1.5-fold of each other in benchmark concentration: 77 µM for the first, 100 µM for the second.

First: c1ccc2occc2c1 [2,3-Benzofuran]
Second: O=c1ccc2ccccc2o1 [Coumarin]
The benchmark concentration of the first is 6.3-fold higher: 61 µM for the first, 9.7 µM for the second.

First: O=C(Nc1ccc(Cl)cc1)Nc1ccc(Cl)c(Cl)c1 [Triclocarban]
Second: CC(=O)Nc1ccc(O)cc1 [Acetaminophen]
The benchmark concentration of the first is lower: < 4.5 µM for the first, 36 µM for the second.

Going from CC1(C)C(=O)N(Br)C(=O)N1Br [1,3-Dibromo-5,5-dimethylhydantoin] to C[C@]12CCC(=O)C=C1CC[C@@H]1[C@@H]2CC[C@]2(C)C(=O)CC[C@@H]12 [4-Androstene-3,17-dione], the benchmark concentration falls from 93 µM to 34 µM (2.7-fold).

Compared with Oc1c(Cl)c(Cl)c(Cl)c(Cl)c1Cl [Pentachlorophenol], Clc1cccc(Cl)c1 [1,3-Dichlorobenzene] is 18-fold higher in benchmark concentration: 9 µM for the first, 160 µM for the second.

Cc1ccc(C(C)C)c(O)c1 [Thymol] and CC(C)NCC(O)c1ccc(O)c(O)c1 (stereo not drawn) [Isoproterenol hydrochloride] are within 1.5-fold of each other in benchmark concentration: 100 µM for the first, 110 µM for the second.

Going from O=C(O)C(F)(F)C(F)(F)C(F)(F)C(F)(F)C(F)(F)C(F)(F)C(F)(F)F [PFOA] to OCCC(F)(F)C(F)(F)C(F)(F)C(F)(F)C(F)(F)C(F)(F)C(F)(F)C(F)(F)F [1,1,2,2-Tetrahydroperfluoro-1-decanol], the benchmark concentration rises from 6.7 µM to 95 µM (14-fold).

First: CC/C(=C(/CC)c1ccc(O)cc1)c1ccc(O)cc1 [Diethylstilbestrol]
Second: Nc1ccc(Cc2ccc(N)cc2)cc1 [4,4'-Methylenedianiline]
The benchmark concentration of the first is 15-fold lower: 4.8 µM for the first, 74 µM for the second.

Going from COc1cc(-c2ccc(N)c(OC)c2)ccc1N [3,3'-Dimethoxybenzidine dihydrochloride] to CCc1nc(N)nc(N)c1-c1ccc(Cl)cc1 [Pyrimethamine], the benchmark concentration rises from 7.6 µM to 49 µM (6.4-fold).

First: O=S(=O)(O)c1ccc(N=Nc2c(O)ccc3cc(S(=O)(=O)O)ccc23)cc1 [FD&C Yellow 6]
Second: Nc1ccc(S(=O)(=O)c2ccc(N)cc2)cc1 [Dapsone]
The benchmark concentration of the first is 3-fold lower: 13 µM for the first, 39 µM for the second.

Compared with Cc1ccc([N+](=O)[O-])cc1C [1,2-Dimethyl-4-nitrobenzene], O=[N+]([O-])c1ccccc1 [Nitrobenzene] is 3.4-fold lower in benchmark concentration: 89 µM for the first, 26 µM for the second.

Cl[C@H]1[C@H](Cl)[C@@H](Cl)[C@H](Cl)[C@@H](Cl)[C@@H]1Cl [beta-Hexachlorocyclohexane] and ClC(Cl)(Cl)c1ccccc1 [Benzotrichloride] are within 1.5-fold of each other in benchmark concentration: 32 µM for the first, 45 µM for the second.

CCN(CC)c1ccccc1 [N,N-Diethylaniline] and ClC(Cl)c1ccccc1 [Benzal chloride] are within 1.5-fold of each other in benchmark concentration: 77 µM for the first, 91 µM for the second.

O=c1[nH]c(=O)[nH]c(=O)[nH]1 [Cyanuric acid] and COC(=O)c1ccccc1N [Methyl 2-aminobenzoate] are within 1.5-fold of each other in benchmark concentration: 91 µM for the first, 77 µM for the second.
